Experimental data published in PMC12478189, “Structurally diverse viral inhibitors converge on a shared mechanism to stall the antigen transporter TAP” (Proceedings of the National Academy of Sciences of the …, 2025).

Biological target: T1, TAP/hUS6 complex (Homo sapiens, UniProt Q03518+Q03519)
T1 construct: gene TAP1; TAP1 C-terminal SpyCatcher, TAP2, hUS6 with SpyTag at its cytoplasmic terminus (covalent tether), GFP tag cleaved; HEK293S GnTI-; in GDN; hUS6 residues 102-136 resolved; with Unique short US6 glycoprotein
T1 sequence (P14334 20-183): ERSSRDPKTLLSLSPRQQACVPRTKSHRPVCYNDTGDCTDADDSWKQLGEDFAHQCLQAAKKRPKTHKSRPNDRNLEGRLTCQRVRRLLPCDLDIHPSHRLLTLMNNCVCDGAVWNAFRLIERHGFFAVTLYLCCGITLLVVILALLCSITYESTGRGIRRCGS
T1 sequence (Q03518 whole entry, the tested form may be a part): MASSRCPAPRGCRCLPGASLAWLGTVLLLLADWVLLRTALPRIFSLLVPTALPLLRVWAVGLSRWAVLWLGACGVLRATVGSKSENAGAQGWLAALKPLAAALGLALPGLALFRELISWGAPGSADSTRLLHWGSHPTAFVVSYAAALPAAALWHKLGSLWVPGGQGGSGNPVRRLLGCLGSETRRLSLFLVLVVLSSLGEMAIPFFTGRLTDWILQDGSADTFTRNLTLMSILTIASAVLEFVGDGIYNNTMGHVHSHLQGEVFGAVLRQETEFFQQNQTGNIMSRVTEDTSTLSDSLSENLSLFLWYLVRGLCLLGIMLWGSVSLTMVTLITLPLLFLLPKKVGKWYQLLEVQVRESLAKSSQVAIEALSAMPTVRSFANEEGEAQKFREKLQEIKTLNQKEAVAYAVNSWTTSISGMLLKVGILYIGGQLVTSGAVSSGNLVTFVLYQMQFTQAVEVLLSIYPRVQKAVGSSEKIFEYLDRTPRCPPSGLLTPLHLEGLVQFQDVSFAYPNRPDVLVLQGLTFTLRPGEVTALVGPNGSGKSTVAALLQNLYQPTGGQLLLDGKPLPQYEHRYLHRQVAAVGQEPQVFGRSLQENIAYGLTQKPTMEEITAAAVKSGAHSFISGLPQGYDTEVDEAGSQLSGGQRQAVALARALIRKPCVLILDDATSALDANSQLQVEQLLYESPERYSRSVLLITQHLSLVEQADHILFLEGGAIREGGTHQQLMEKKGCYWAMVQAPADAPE
T1 sequence (Q03519 whole entry, the tested form may be a part): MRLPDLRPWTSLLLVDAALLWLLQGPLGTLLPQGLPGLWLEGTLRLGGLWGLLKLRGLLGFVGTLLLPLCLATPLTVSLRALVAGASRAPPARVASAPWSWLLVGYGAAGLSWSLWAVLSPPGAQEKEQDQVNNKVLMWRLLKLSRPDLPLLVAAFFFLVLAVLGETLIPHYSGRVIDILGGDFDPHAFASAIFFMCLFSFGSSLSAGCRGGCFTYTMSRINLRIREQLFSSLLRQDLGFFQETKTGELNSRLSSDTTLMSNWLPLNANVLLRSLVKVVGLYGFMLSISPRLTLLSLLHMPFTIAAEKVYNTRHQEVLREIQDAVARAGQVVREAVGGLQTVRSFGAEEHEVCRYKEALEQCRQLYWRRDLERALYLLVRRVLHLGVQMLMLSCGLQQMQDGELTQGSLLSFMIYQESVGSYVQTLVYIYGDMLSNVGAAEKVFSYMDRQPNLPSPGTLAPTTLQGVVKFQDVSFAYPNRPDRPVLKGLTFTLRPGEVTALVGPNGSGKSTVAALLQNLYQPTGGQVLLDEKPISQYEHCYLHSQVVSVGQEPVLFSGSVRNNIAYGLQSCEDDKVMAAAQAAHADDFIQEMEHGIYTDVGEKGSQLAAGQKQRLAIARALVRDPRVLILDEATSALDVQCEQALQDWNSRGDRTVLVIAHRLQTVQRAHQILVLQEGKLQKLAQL
Test: cryo-EM structure of the complex
Format: binding
Conditions: pH 6.5

SMILES | cryo-EM structure of the complex (10 mM ATP added, ADP at the consensus NBD site, posthydrolytic state) | cryo-EM structure of the complex (10 mM ATP, ATP at the degenerate NBD site, outward-facing, NBD-dimerized)
Nc1ncnc2c1ncn2[C@@H]1O[C@H](COP(=O)(O)OP(=O)(O)O)[C@@H](O)[C@H]1O [ADP] | densities corresponding to ATP bound at the degenerate site and ADP at the consensus site | –
Nc1ncnc2c1ncn2[C@@H]1O[C@H](COP(=O)(O)OP(=O)(O)OP(=O)(O)O)[C@@H](O)[C@H]1O [ATP] | – | densities corresponding to ATP bound at the degenerate site and ADP at the consensus site
